Laboratory results taken from patent US20200317741A1, “COMPOSITION FOR PREVENTING HAIR LOSS OR PROMOTING HAIR GROWTH” (BR PHARM CO., LTD., priority 2019, published 2020).
Ends that are not written are not given here.

Legend:
Type in all cases: cell-based
[1] = test system: dermal papilla cells; test: Dermal papilla cell growth rate by cell counting (PDRN alone or with Wnt-1+Wnt-2); conditions: PDRN 50, 100, 200 μg/mL, 72 hours, relative to control without PDRN (FIG. 2)
Method: Dermal papilla cells (Promocells) were cultured in an incubator at 37° C., 5% CO2 using DMEM medium (Dulbeco's Modified Eagle's Medium) containing 10% fetal bovine serum (FBS) and 1% penicillin/streptomycin.
Cells were recovered by treating the cultured cells with trypsin/EDTA, and then the number of cells was measured using a hemacytometer. The cells were seeded in 96 well plates at 3×10^3 cells/200 μL/well and then stabilized for at least 4 hours. Thereafter, the medium was removed, diluted in DEME medium so as to be the polydeoxyribonucleotide (PDRN) of 50, 100, 200 μg/mL concentration and then treated with cells and cultured for 72 hours in an incubator at 37° C., 5% CO2.
Subsequently, the cells were recovered by treating them with trypsin/EDTA and then the number of cells was measured using a hematocytometer. Cell growth rate was analyzed by calculating percentages based on the control group without the treatment with PDRN.
As in Example 1, the dermal papilla cells were seeded in 96 well plates at 3×10^3 cells/200 μL/well and stabilized for at least 4 hours. Thereafter, the medium was removed, diluted with DEME medium so as to be polydeoxyribonucleotide (PDRN, BR Pharm Co. Ltd.) of 25, 50, 100 μg/mL and Wnt-1 peptide+Wnt-2 peptide of 0.1 μg/mL (each 0.05 μg/mL) and then treated with cells and cultured for 72 hours in an incubator at 37° C., 5% CO2.

[2] = test system: β-catenin; test: Expression analysis of β-catenin in dermal papilla cells (western blot); conditions: FIG. 6 legend
Method: (§1) As in Example 1, the dermal papilla cells were stabilized for at least 4 hours after seeding in 6 well plates at 4×10^4 cells/well. Thereafter, the medium was removed, and the cell was treated with PDRN, Wnt-1 peptide and Wnt-2 peptide at various concentrations alone or in combination and incubated for 72 hours in an incubator at 37° C., 5% CO2.
(§2) Then, the cells were lysed by adding lysis buffer (1 M Tris-HCl, 0.5 M EDTA, 1% Triton X-100, 100 mM PMSF) to each cell, and the protein was quantified using a BCA (Bicinconinic acid) kit. 20 μg of protein was loaded on 10% SDS-polyacrylamide and electrophoresed at 125 V. The protein separated by electrophoresis was transferred to PVDF membrane (Immobilon-P transfermembrane) by electrophoresis at 50 mA for 120 minutes using transfer buffer (20% methanol, 25 mM Tris-HCl, 192 mM glycine).
(§3) To prevent nonspecific binding, the membranes were blocked with 5% non-fat skim milk and then the reaction was carried out at 4° C. for 12 hours with a primary antibody (β-catenin, c-myc, Santa Cruz Biotechnology, Inc.) diluted to 1:1000 in TTBS solution ([…], pH 7.4; 20 mM NaCl; 0.05% Tween-20). Thereafter, the membrane was washed three times with TTBS and reacted with a secondary antibody (HRP-conjugated anti-rabbit IgG) diluted to 1:2000 at room temperature for 2 hours. The membrane was then washed three times with TTBS and then protein expression was confirmed on the X-ray film using an ECL diagnostic kit.

[3] = test system: c-myc; test: Expression analysis of c-myc in dermal papilla cells (western blot); conditions: for activity of c-myc: FIG. 7 legend
Method: as §1, §2, §3

[4] = test system: keratinocytes; test: Keratinocyte growth by Wnt-derived peptides (microscopy); conditions: 72 hours (FIG. 3A)
Method: (§4) To confirm the shape change and proliferation rate of cells, keratinocytes T0020001 (AddexBio), fibroblasts (ATCC), and dermal papilla cells were cultured in DMEM medium containing 10% fetal bovine serum and 1% penicillin/streptomycin.
(§5) After the cells were recovered by treating the cultured cells with trypsin/EDTA and the number of cells was measured using a hematocytometer. The cells were seeded in 96 well plates at 3×10^3 cells/200 μL/well and stabilized for at least 4 hours.
(§6) Thereafter, the medium was removed, diluted with DEME medium so as to be the Wnt peptides (Wnt-1, Wnt-2) of 10, 100, 1000, and 10000 ng/mL and then treated with cells and cultured for 72 hours in an incubator at 37° C., 5% CO2. The cells were then observed by a microscope to analyze the morphology and growth rate of the cells.

[5] = test system: fibroblasts; test: Fibroblast growth by Wnt-derived peptides (microscopy); conditions: 10-10000 ng/mL, 72 hours, compared to the control group (FIG. 3B)
Method: as §4, §5, §6

[6] = test system: dermal papilla cells; test: Dermal papilla cell growth by Wnt-derived peptides (microscopy); conditions: 100 ng/mL among 10-10000 ng/mL, 72 hours (FIG. 3C)
Method: as §4, §5, §6

Row | Substance | growth rate of the dermal papilla cells [1] | activity of β-catenin [2] | expression of c-myc with PDRN treatment concentration ([3]; 72 hours (FIG. 7)) | cell growth rate (keratinocytes) at 100 ng/mL ([4]; 100 ng/mL among 10-10000 ng/mL) | cell growth (fibroblasts) compared to the control group [5] | cell growth rate (dermal papilla cells) at 100 ng/mL [6] | activity of c-myc [3] | growth rate of the cells (keratinocytes) ([4]; 10, 100, 1000, 10000 ng/mL)
1 | polydeoxyribonucleotide [PDRN] | increases as the PDRN treatment concentration increases | effect of increasing the activity of β-catenin | increased as the treatment concentration of PDRN increased | – | – | – | – | –
2 | MCCGRGYNYH (Ac-MCCGRGYNYH; cysteine pairing not given here) [Wnt-2] | – | effect of increasing the activity of β-catenin | – | highest cell growth rate | no change was observed | highest cell growth rate | effect of increasing the activity of c-myc | –
3 | MCCGRGYDQF (Ac-MCCGRGYDQF; cysteine pairing not given here) [Wnt-1] | – | effect of increasing the activity of β-catenin | – | – | – | highest cell growth rate | effect of increasing the activity of c-myc | growth rate of the cells was increased
